Earlier results as cited in US10564084B2, “Rapid characterization of the solubility of amphiphiles” (The Trustees of Princeton University, priority 2013, dated 2020).

Details: in water; used to rescale the concentration c

CCCCCCCCCCCCCCCC[N+](C)(C)C.[Cl-] [C16TAC, hexadecyl trimethylammonium chloride]
critical micellar concentration cmc: 1.6 mM
